Where two headings read alike, the source gives them in different places.
Tests used:
A549 (human lung) = experiment: CellTox Green Cytotoxicity Assay; settings: ratio > 1 cytostatic, ≤ 1 cytotoxic
SARS-CoV-2 = experiment: Combinatorial sangivamycin/remdesivir efficacy testing, Calu-3 cells; type: cell-based; settings: Severe acute respiratory syndrome coronavirus 2, Calu-3; read-out: IC50 (nM), S:R by [Sangivamycin]
[1] = system: SARS-CoV-2 B.1.429 (Epsilon); experiment: microbe, parasite or virus in culture; type: cell-based
[2] = CellTiter-Glo cell viability assay; type: cell-based; settings: human, HEK293T cells
[3] = Turbidimetric aqueous solubility screening; type: physicochemical; settings: PBS, pH 7.4, PBS pH 7.4, 2 hours at 37°C, high test concentration 500 μM
Experimental: Aqueous solubility of sangivamycin was measured using a high-throughput turbidimetric assay performed by Cyprotex. Initially, sangivamycin stock DMSO solution was diluted in DMSO to produce a range of concentrations. These dilutions were added to PBS at pH 7.4 (high test concentration 500 μM) and incubated for 2 hours at 37°C. At the end of the incubation period, the absorbance at 620 nm was measured for each concentration for 2 replicates to determine turbidity from precipitate formation.

[4] = CellTiter-Glo cell viability assay, average of 8 cell types; type: cell-based; settings: human (7 cell types) and grivet (Vero E6), average ± SEM, n = 8 cell types
multiple cell types = experiment: as above; type: cell-based; settings: average ± SEM, n = 8 cell types
[5] = system: SARS-CoV-2 B.1.617.2 (Delta); experiment: microbe, parasite or virus in culture; type: cell-based
[6] = system: SARS-CoV-2 B.1.1.7 (Alpha); experiment: microbe, parasite or virus in culture; type: cell-based
[7] = CellTiter-Glo cell viability assay; type: cell-based; settings: human, A549 cells; A549, 72 h
[8] = system: Calu-3 (human lung adenocarcinoma); experiment: CellTox Green Cytotoxicity Assay; settings: ratio > 1 cytostatic, ≤ 1 cytotoxic
[9] = Metabolic stability testing, liver microsomes; type: in vitro ADME; settings: pH 7.4, 0.5 mg/mL microsomes, NADPH
Experimental: To evaluate metabolic stability, sangivamycin was incubated by Cyprotex in duplicate with active and heat-inactivated human and CD-1 laboratory mouse liver microsomes (0.5 mg/mL) and cofactors (2.5 mM NADPH and 3.3 mM MgCl2) in 0.1 M phosphate buffer (pH 7.4) at 37°C. Aliquots were removed at 0, 15, 30, 60, 90, and 120 minutes, and the amount of drug remaining at each time point was determined by LC-MS/MS.

human cancer patients = settings: 40 human cancer patients, cited from earlier work
SARS-CoV-2 WA1 [10] = experiment: microbe, parasite or virus in culture; type: cell-based; settings: Severe acute respiratory syndrome coronavirus 2, Caco-2, 96 h
Huh-7 cells = experiment: Mitochondrial dye cell imaging (MTG, NAO); type: cell-based, human; settings: 100 nM for 5 d, MTG and NAO
Excerpt: Other important measures of cell viability are mitochondrial integrity, function, cardiotoxicity, and genotoxicity, since other nucleoside analogs may vary in their effect on these endpoints ([29], [30]). Dyes commonly used to assess mitochondrial integrity are MitoTracker Green (MTG), a mitochondrial stain mostly localized to mitochondria based on hydrophobicity, and N-alkyl acridine orange (NAO), which binds to mitochondrial cardiolipin. Untreated Huh-7 cells and Huh-7 cells treated for 5 days with 100 nM sangivamycin were stained with MTG and NAO and imaged by fluorescence microscopy. […] To more quantitatively assess the impact of sangivamycin on mitochondrial integrity, we evaluated the effect of sangivamycin on mitochondrial metabolic function as well as cytoplasmic glycolytic function. The XF96e Seahorse instrument was used to quantify the oxygen consumption rate (OCR) over time in untreated control and sangivamycin-treated Huh-7 cells. […] Standard metabolic endpoints quantified with or without sangivamycin included sequential treatment and washout of cell cultures with oligomycin (ATP synthase inhibitor), carbonyl cyanide 4-(trifluoromethoxy)phenylhydrazone (FCCP; a proton gradient uncoupler), and antimycin A + rotenone (complex I and III blockers) (Supplemental Figure 7).
Huh-7 cells were untreated or treated with 100 nM sangivamycin for 5 days. […]

[11] = mice, cited from earlier work
SARS-CoV-2 P.1 (Gamma) = experiment: microbe, parasite or virus in culture; type: cell-based
SARS-CoV-2 WA1 [12] = experiment: microbe, parasite or virus in culture; type: cell-based
[13] = system: HepG2 (human hepatocarcinoma); experiment: CellTox Green Cytotoxicity Assay; settings: ratio > 1 cytostatic, ≤ 1 cytotoxic
[14] = system: SARS-CoV-2 B.1.429 (Epsilon); experiment: microbe, parasite or virus in culture; type: cell-based; remark: listed apart in the source
[15] = system: Vero E6 (grivet kidney epithelial); experiment: CellTox Green Cytotoxicity Assay; settings: ratio > 1 cytostatic, ≤ 1 cytotoxic
SARS-CoV-2 P.2 (Zeta) = experiment: microbe, parasite or virus in culture; type: cell-based
[16] = Severe acute respiratory syndrome coronavirus 2, Vero C1008, 48 h
[17] = Severe acute respiratory syndrome coronavirus 2, Calu-3, 24 h
[18] = Severe acute respiratory syndrome coronavirus 2, Vero C1008, 24 h
[19] = Severe acute respiratory syndrome coronavirus 2, Calu-3, 72 h

For `NC(=O)c1cn([C@@H]2O[C@H](CO)[C@@H](O)[C@H]2O)c2ncnc(N)c12` [Sangivamycin, sangivamycin], the “Ratio CellTox Green/CellTiter-Glo” value (A549 (human lung)) was greater than 28.9, the IC50 (SARS-CoV-2) was 69.6 nM and the “SI (selectivity index, CC50/IC50)” value ([1]; B.1.429 (Epsilon), Vero E6 cells) was greater than 8.2. For the same compound, the IC50 [1, 16] was 0.0728 µM, the IC90 [1, 16] was 0.465 µM and the CC50 at 72 h [2] was 0.885 µM. It also gave a solubility at 2 h [3] of no less than 500 µM, a CC50 [4] of 0.617 ± 0.181 µM and a CC50 (multiple cell types) of 0.607 ± 0.182 µM. The “SI (selectivity index, CC50/IC50)” value ([5]; B.1.617.2 (Delta), Calu-3 cells) was greater than 7.6, the IC50 [5, 17] was 0.079 µM and the IC90 [5, 17] was 0.29 µM. The “SI (selectivity index, CC50/IC50)” value ([6]; B.1.1.7 (Alpha), Vero E6 cells) was greater than 39.0, the IC50 [6, 18] was 0.0154 µM and the IC90 [6, 18] was 0.164 µM. The CC50 at 72 h [7] was 0.173 µM, the “Ratio CellTox Green/CellTiter-Glo” value [8] was greater than 15.5 and the remaining at 2 h, 5 μM ([9]; CD-1, mouse, read-out: Mouse liver microsome stability (% remaining at 120 min)) was 100%. For the same compound, the remaining at 2 h, 5 μM ([9]; human, read-out: Human liver microsome stability (% remaining at 120 min)) was 100%, the MTD (human cancer patients; 0.1–2.83 mg/kg total dose) was “not reached” and the tolerability (human cancer patients; daily, thrice weekly, or weekly dosing, 0.1–2.83 mg/kg total dose) was “well tolerated”. For the same compound, the “activity against the disease (cancer)” value (human cancer patients) was “inactive”, the IC50 (SARS-CoV-2 WA1 [10]) was 0.014 ± 0.002 µM and the IC90 (SARS-CoV-2 WA1 [10]) was 0.063 ± 0.017 µM. The “Effect on mitochondrial integrity (imaging with mitochondrial dyes)” value (Huh-7 cells) was “Negative”, the “Effect on mitochondrial integrity (imaging with mitochondrial dyes)” value (Huh-7 cells; listed as sangivamycin) was “did not significantly affect mitochondrial structural integrity” and the half-life in blood ([11]; 3H-labeled sangivamycin, i.p. 8 mg/kg) was 50 h. The “drug-derived radioactivity accounted for in the urine” value ([11]; over a period of 12 days) was 40%, the “SI (selectivity index, CC50/IC50)” value (SARS-CoV-2 P.1 (Gamma); P.1 (Gamma), Vero E6 cells) was greater than 22.2 and the IC50 (SARS-CoV-2 P.1 (Gamma); [18]) was 0.0271 µM. The IC90 (SARS-CoV-2 P.1 (Gamma); [18]) was 0.245 µM, the IC50 (SARS-CoV-2 WA1 [12]; [19]) was 0.061 ± 0.008 µM and the IC90 (SARS-CoV-2 WA1 [12]; [19]) was 0.19 ± 0.023 µM. For the same compound, the “SI (selectivity index, CC50/IC50)” value (SARS-CoV-2 WA1 [12]; WA1, Calu-3 cells) was 5.3, the “Ratio CellTox Green/CellTiter-Glo” value [13] was greater than 2.82 and the “SI (selectivity index, CC50/IC50)” value ([14]; B.1.429 (Epsilon), Calu-3 cells) was greater than 8.4. For the same compound, the IC50 [14, 17] was 0.0711 µM, the IC90 [14, 17] was 0.234 µM and the “Ratio CellTox Green/CellTiter-Glo” value [15] was greater than 10.2. For the same compound, the “SI (selectivity index, CC50/IC50)” value (SARS-CoV-2 P.2 (Zeta); P.2 (Zeta), Vero E6 cells) was greater than 20.1, the IC50 (SARS-CoV-2 P.2 (Zeta); [18]) was 0.0298 µM and the IC90 (SARS-CoV-2 P.2 (Zeta); [18]) was 0.125 µM.
